Where a SMILES comes first, the peptide text is derived from it. [ ]: non-standard residue; d: D form. The star is where a group is joined. X1 = Cc1ccc(Nc2ncc3c(n2)N(C)C(=O)N(c2cc(C(=O)*)ccc2C)C3)cn1; Aib = CC(C)(N)C(=O)O

Experimental findings from article PMC9067983, “Identification of highly selective type II kinase inhibitors with chiral peptidomimetic tails” (Journal of Enzyme Inhibition and Medicinal Chemistry, 2022) are described below.

One test has as its target T1, Abl1 (Homo sapiens, UniProt P00519).
T1 construct: purchased Reaction Biology Corp
In words: In vitro kinase assay (IC50). In kind it is biochemical. The method, then:
(§1) Full panel kinase profiling and kinase IC50 measurement were performed by using Reaction Biology Corp. (San Diego, USA).

The target of test [1] is T2, Lck (Homo sapiens, UniProt P06239).
T2 construct: purchased Reaction Biology Corp
In words: In vitro kinase assay (IC50). It is filed as biochemical. The method, then: as §1

The target of a further test is T3, c-Src (Homo sapiens, UniProt P12931).
T3 construct: purchased Reaction Biology Corp
In words: In vitro kinase assay (IC50). In kind it is biochemical. The method, then:
as §1

A further test deals with T4, p38a (Homo sapiens, UniProt Q16539).
T4 construct: purchased Reaction Biology Corp
In words: In vitro kinase assay (IC50). It is filed as biochemical. The method, then: as §1

Test [2] deals with T2, Lck. As to the kind of experiment: Biochemical IC50 on Lck at Km and 1 mM ATP. The method, then:
as §1

T3 sequence (P12931 whole entry): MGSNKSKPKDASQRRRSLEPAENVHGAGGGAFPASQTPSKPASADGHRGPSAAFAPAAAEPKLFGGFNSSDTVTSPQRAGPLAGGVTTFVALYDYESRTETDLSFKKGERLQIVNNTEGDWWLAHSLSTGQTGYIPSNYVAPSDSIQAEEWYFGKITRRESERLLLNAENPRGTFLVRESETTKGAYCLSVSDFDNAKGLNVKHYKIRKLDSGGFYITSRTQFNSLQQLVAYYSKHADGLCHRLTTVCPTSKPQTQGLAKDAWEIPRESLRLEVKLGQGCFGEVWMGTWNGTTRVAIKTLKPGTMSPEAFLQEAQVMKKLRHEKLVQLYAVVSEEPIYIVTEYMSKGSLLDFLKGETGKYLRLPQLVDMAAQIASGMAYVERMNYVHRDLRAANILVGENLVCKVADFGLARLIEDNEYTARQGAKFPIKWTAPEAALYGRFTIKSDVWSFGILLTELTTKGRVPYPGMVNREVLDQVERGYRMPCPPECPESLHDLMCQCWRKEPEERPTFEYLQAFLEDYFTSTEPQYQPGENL
T2 sequence (P06239 whole entry): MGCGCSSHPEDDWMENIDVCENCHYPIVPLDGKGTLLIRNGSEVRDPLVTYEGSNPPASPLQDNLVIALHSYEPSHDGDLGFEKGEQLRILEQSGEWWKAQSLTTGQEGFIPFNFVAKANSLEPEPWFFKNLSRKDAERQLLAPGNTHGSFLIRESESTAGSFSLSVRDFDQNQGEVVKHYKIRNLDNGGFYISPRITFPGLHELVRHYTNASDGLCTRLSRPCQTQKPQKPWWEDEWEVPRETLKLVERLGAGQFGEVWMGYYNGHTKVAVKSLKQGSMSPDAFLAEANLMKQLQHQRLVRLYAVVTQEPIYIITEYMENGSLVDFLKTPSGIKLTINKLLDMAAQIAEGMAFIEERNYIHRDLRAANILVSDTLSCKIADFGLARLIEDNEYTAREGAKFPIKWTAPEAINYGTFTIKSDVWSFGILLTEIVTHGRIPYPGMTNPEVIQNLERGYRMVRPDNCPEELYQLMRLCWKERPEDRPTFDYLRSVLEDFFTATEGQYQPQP
T1 sequence (P00519 whole entry): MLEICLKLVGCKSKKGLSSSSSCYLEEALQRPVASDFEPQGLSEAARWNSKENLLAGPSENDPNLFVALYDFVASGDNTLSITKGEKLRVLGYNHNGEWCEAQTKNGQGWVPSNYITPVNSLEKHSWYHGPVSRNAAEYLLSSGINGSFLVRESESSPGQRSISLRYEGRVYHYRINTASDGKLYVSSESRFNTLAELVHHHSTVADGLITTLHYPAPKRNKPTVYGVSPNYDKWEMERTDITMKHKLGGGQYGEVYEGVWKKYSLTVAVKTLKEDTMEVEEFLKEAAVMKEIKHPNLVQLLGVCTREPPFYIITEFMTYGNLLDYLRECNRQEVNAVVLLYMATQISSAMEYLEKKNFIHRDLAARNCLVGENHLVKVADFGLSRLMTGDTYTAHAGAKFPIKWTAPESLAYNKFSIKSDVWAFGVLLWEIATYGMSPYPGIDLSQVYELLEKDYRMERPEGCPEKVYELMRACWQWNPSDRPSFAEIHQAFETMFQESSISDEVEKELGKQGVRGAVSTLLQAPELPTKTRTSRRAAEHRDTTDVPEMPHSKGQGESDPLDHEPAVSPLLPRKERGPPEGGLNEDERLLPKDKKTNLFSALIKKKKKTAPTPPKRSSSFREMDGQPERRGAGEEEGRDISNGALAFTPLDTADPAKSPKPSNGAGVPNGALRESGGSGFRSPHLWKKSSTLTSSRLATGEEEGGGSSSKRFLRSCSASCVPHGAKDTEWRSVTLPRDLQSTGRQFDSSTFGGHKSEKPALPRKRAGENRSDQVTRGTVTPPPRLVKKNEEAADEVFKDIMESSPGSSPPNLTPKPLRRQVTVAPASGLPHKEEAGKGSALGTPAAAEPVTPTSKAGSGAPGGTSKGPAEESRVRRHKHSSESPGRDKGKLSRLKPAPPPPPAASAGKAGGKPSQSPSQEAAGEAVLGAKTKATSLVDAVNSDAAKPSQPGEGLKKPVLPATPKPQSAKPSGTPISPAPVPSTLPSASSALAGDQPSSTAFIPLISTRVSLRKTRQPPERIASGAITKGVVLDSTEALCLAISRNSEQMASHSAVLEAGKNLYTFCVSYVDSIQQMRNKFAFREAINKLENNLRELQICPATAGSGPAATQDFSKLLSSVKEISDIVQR
T4 sequence (Q16539 whole entry): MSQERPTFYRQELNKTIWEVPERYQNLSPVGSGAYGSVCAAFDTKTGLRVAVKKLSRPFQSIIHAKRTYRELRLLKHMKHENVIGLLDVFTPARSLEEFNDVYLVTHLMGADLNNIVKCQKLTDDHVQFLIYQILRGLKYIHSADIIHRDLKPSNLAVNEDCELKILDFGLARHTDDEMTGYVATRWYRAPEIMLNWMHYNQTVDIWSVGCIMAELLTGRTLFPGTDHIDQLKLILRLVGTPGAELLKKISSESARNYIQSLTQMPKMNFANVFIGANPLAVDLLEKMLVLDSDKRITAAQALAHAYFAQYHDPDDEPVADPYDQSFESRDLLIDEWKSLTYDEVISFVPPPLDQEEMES

As usually defined, the IC50 is the midpoint of a concentration-inhibition curve. For the molecule `Cc1ccc(Nc2ncc3c(n2)N(C)C(=O)N(c2cc(C(=O)N[C@H](C(=O)N4CCC[C@@H]4C(=O)NC(C)(C)C(=O)N[C@@H](CC(C)C)C(=O)N(C)C)C(C)C)ccc2C)C3)cn1` [7b, (R)-N-(1-(((S)-1-(dimethylamino)-4-methyl-1-oxopentan-2-yl)amino)-2-methyl-1-oxopropan-2-yl)-1-((4-methyl-3-(1-methyl-7-((6-methylpyridin-3-yl)amino)-2-oxo-1,4-dihydropyrimido[4,5-d]pyrimidin-3(2H)-yl)benzoyl)-L-valyl)pyrrolidine-2-carboxamide] (X1-V[dP][Aib]L-NMe2), the IC50 on Abl1 amounted to 317 nM; against Lck [1] it was 174 nM; on c-Src, 379 nM; at p38a it was 2050 nM.

With `Cc1ccc(Nc2ncc3c(n2)N(C)C(=O)N(c2cc(NC(=O)c4ccc5c(c4)NC(=O)[C@H](Cc4ccccc4)N=C5c4ccccc4)ccc2C)C3)cn1` [11a, (S)-3-benzyl-N-(4-methyl-3-(1-methyl-7-((6-methylpyridin-3-yl)amino)-2-oxo-1,4-dihydropyrimido[4,5-d]pyrimidin-3(2H)-yl)phenyl)-2-oxo-5-phenyl-2,3-dihydro-1H-benzo[e][1,4]diazepine-8-carboxamide], the IC50 against Abl1 was 189 nM; at Lck [1] it was 8.5 nM; against c-Src it was 20.4 nM; at p38a, 1830 nM.

On to `Cc1ccc(Nc2ncc3c(n2)N(C)C(=O)N(c2cc(NC(=O)c4ccc5c(c4)N(Cc4ccccc4)C(=O)[C@H](CC(C)C)N=C5c4ccccc4)ccc2C)C3)cn1` [11b, (S)-1-benzyl-3-isobutyl-N-(4-methyl-3-(1-methyl-7-((6-methylpyridin-3-yl)amino)-2-oxo-1,4-dihydropyrimido[4,5-d]pyrimidin-3(2H)-yl)phenyl)-2-oxo-5-phenyl-2,3-dihydro-1H-benzo[e][1,4]diazepine-8-carboxamide], for which the IC50 was 453 nM on Abl1; 37.3 nM against Lck [1]; 410 nM against c-Src; 3430 nM against p38a; 510 nM at Lck [2] (ATP conc. 14 µM (Km)); more than 100000 nM against Lck [2] (ATP conc. 1 mM). Further, the “selectivity for Lck over c-Src” value on Lck [1] was “over 10 fold”. The mode of inhibition result at Lck [2] (IC50 at Km vs 1 mM ATP) was “ATP competitive kinase inhibitors”.

On to `Cc1ccc(Nc2ncc3c(n2)N(C)C(=O)N(c2cc(NC(=O)c4ccc5c(c4)NC(=O)[C@H](C)N=C5c4ccccc4)ccc2C)C3)cn1` [11c, (S)-3-methyl-N-(4-methyl-3-(1-methyl-7-((6-methylpyridin-3-yl)amino)-2-oxo-1,4-dihydropyrimido[4,5-d]pyrimidin-3(2H)-yl)phenyl)-2-oxo-5-phenyl-2,3-dihydro-1H-benzo[e][1,4]diazepine-8-carboxamide], for which the IC50 at Abl1 was found to be 4.64 nM; against Lck [1], 1.17 nM; at c-Src, 2.84 nM; on p38a, 14.9 nM.

Turning to `Cc1ccc(Nc2ncc3c(n2)N(C)C(=O)N(c2cc(NC(=O)c4ccc5c(c4)N(Cc4ccccc4)C(=O)[C@H](C)N=C5c4ccccc4)ccc2C)C3)cn1` [11d, (S)-1-benzyl-3-methyl-N-(4-methyl-3-(1-methyl-7-((6-methylpyridin-3-yl)amino)-2-oxo-1,4-dihydropyrimido[4,5-d]pyrimidin-3(2H)-yl)phenyl)-2-oxo-5-phenyl-2,3-dihydro-1H-benzo[e][1,4]diazepine-8-carboxamide], the IC50 worked out at 24.1 nM at Abl1, 3.42 nM against Lck [1], 15.2 nM at c-Src and 101 nM against p38a.

For the molecule `CC[C@@H](C)[C@H]1N=C(c2ccccc2)c2ccc(C(=O)Nc3ccc(C)c(N4Cc5cnc(Nc6ccc(C)nc6)nc5N(C)C4=O)c3)cc2NC1=O` [11e, (R)-3-((R)-s-butyl)-N-(4-methyl-3-(1-methyl-7-((6-methylpyridin-3-yl)amino)-2-oxo-1,4-dihydropyrimido[4,5-d]pyrimidin-3(2H)-yl)phenyl)-2-oxo-5-phenyl-2,3-dihydro-1H-benzo[e][1,4]diazepine-8-carboxamide], the IC50 was 55.2 nM at Abl1, 10.7 nM against Lck [1], 12.8 nM on c-Src and 250 nM on p38a.

As for `C=CCCC1=N[C@@H](CC(=O)Nc2ccc(C)c(N3Cc4cnc(Nc5ccc(C)nc5)nc4N(C)C3=O)c2)C(=O)N(C)c2ccccc21` [11p, (S)-2-(5-(but-3-en-1-yl)-1-methyl-2-oxo-2,3-dihydro-1H-benzo[e][1,4]diazepin-3-yl)-N-(4-methyl-3-(1-methyl-7-((6-methylpyridin-3-yl)amino)-2-oxo-1,4-dihydropyrimido[4,5-d]pyrimidin-3(2H)-yl)phenyl)acetamide], the IC50 on Lck [1] stood at 3.8 nM; on c-Src it was 6.14 nM.

For the molecule `C=CCCC1=N[C@@H](CC(=O)Nc2ccc(C)c(N3Cc4cnc(Nc5ccc(C)nc5)nc4N(C)C3=O)c2)C(=O)N(Cc2ccccc2)c2ccccc21` [11q, (S)-2-(1-benzyl-5-(but-3-en-1-yl)-2-oxo-2,3-dihydro-1H-benzo[e][1,4]diazepin-3-yl)-N-(4-methyl-3-(1-methyl-7-((6-methylpyridin-3-yl)amino)-2-oxo-1,4-dihydropyrimido[4,5-d]pyrimidin-3(2H)-yl)phenyl)acetamide], the IC50 on Lck [1] amounted to 17.9 nM; at c-Src, 24.8 nM.
